Measured values from patent publication US12396968B2, “Mitofusin activators having an endocyclic-bonded carbonyl group and methods for use thereof” (priority 2022, dated 2025).

test system: mitofusin; experiment: Dose-response of mitofusin agonist fusogenicity (mitochondrial aspect ratio) in Mfn1- or Mfn2-deficient MEFs; format: cell-based, mouse; settings: Mfn1-KO or Mfn2-KO MEFs, compounds overnight, mitochondrial aspect ratio indexed to maximal response of Compound 35
Procedure: Dose-response of mitofusin agonist fusogenicity was performed in Mfn1- or Mfn2-deficient MEFs (Mfn1-KO or Mfn2-KO MEFs) cultured at 37° C. and 5% CO2-95% air. Cells were seeded on day 1 in 6 well plates at a density of 2×10^4 cells per well and compounds added at 9 concentrations (0.5 nM-10 μM dissolved in DMSO) overnight. Mitochondria were then stained with MitoTracker Orange (200 nM; M7510; Invitrogen, Carlsbad, CA, USA). Nuclei were stained with Hoescht (10 μg/ml; Invitrogen, Thermo Fisher Scientific Cat: #H3570). Images were acquired at room temperature on a Nikon Ti Confocal microscope using a 60×1.3 NA oil-immersion objective in Krebs-Henseleit buffer (138 NaCl, […] pH: 7.2-7.5, and 1 mM CaCl2). Laser excitation was 549 nm with emission at 590 nm for MitoTracker Orange and excitation at 306 nm with emission at 405 nm for Hoescht. Images were analyzed using ImageJ and fusogenicity quantified as mitochondrial aspect ratio (length/width), and were indexed to the maximal response elicited by Compound 35, a known mitofusin activator. Response curves were interpolated using the sigmoidal model using Prism 8 software. EC50 values are reported as mean with 95% confidence limits for at least 3 independent experiments.
(§1) Further testing details for the MFN activity and PAMPA are provided in U.S. Patent Applications 2020/0345668 and 2020/0345669, incorporated herein by reference above.

Question: Which EC50 does the source give for `O=C(CCCCCCc1ccccc1)N1CCCC(O)C1` (centres unmarked) [Formula 8] here?
Answer: The EC50 was over 10000 nM.

Question: Which EC50 does the source give for `O=C(NC1CC(CCCc2ccccc2)C1)C1CCC(O)CC1` (centres unmarked) [Formula 31A] here?
Answer: Its EC50 is 9 nM.

Question: Which EC50 does the source give for `O=C(N[C@H]1C[C@@H]1OCCc1ccccc1)[C@H]1CC[C@H](O)CC1` [Formula 32A] here?
Answer: The EC50 was 10.5 nM.

Question: With `O=C(CCCCCc1ccccc1)N1CCC(O)CC1` [Formula 9] as the molecule, how does the EC50 read?
Answer: Its EC50 is over 10000 nM.

Question: Which EC50 does the source give for `O=C(NC1CC1OCc1ccccc1)C1CCC(O)CC1` (centres unmarked) [Formula 33A] here?
Answer: The EC50 was 10.8 nM.

Question: Which EC50 does the source give for `O=C(CCCCCCc1ccccc1)N1CCC(O)CC1` [Formula 7] here?
Answer: The EC50 was 30.5 nM.

Question: For `O=C(NC1CC1OCCCc1ccccc1)C1CCC(O)CC1` (centres unmarked) [Formula 34A], which EC50 is on record?
Answer: Its EC50 is 26.7 nM.

Question: For `O=C(CCCCCCCc1ccccc1)N1CCC(O)CC1` [Formula 10], which EC50 is on record?
Answer: Its EC50 is 12.2 nM.

Question: Which EC50 does the source give for `O=C(NC1CC1CCCCc1ccccc1)C1CCC(O)CC1` (centres unmarked) [Formula 30A] here?
Answer: Its EC50 is 5.3 nM.

Question: Which EC50 does the source give for `O=C(NCCCCCc1ccccc1)C1CCC(O)CC1` (centres unmarked) [Formula 26] here?
Answer: Its EC50 is 9.68 nM.

test system: not listed separately; experiment: Plasma protein binding by equilibrium dialysis, human; format: in vitro ADME; settings: read-out: Plasma Protein Binding (Bound %) Human (converted)
Procedure: (§2) In vitro pharmacokinetic analyses were performed in duplicate using standard methods by WuXi AppTec Co. Ltd. (Shanghai, China). Plasma protein binding was measured by equilibrium dialysis; % bound=(1−[free compound in dialysate]/[total compound in retentate])×100. Plasma stability of 2 uM compounds in clarified freeze-thawed plasma was assessed by LC-MS/MS of supernatants after protein precipitation; 120 min data are reported for studies including 0, 10, 30, 60, and 120 min. Liver microsome stability of 1 uM compounds in liver microsomes (0.5 mg/ml) after 0, 5, 10, 20, 30, 60 min. incubation was assessed by LC/MS/MS of reaction extracts.

Question: With `O=C(CCCCCCc1ccccc1)N1CCCC(O)C1` (centres unmarked) [Formula 8] as the molecule, how does the fraction unbound read?
Answer: Its fraction unbound is 0.034.

Question: Which fraction unbound does the source give for `O=C(NC1CC(CCCc2ccccc2)C1)C1CCC(O)CC1` (centres unmarked) [Formula 31A] here?
Answer: Its fraction unbound is 0.042.

Question: For `O=C(N[C@H]1C[C@@H]1OCCc1ccccc1)[C@H]1CC[C@H](O)CC1` [Formula 32A], which fraction unbound is on record?
Answer: The fraction unbound was 0.535.

Question: Which fraction unbound does the source give for `O=C(CCCCCc1ccccc1)N1CCC(O)CC1` [Formula 9] here?
Answer: Its fraction unbound is 0.163.

Question: With `O=C(NC1CC1OCc1ccccc1)C1CCC(O)CC1` (centres unmarked) [Formula 33A] as the molecule, how does the fraction unbound read?
Answer: The fraction unbound was 0.626.

Question: For `O=C(CCCCCCc1ccccc1)N1CCC(O)CC1` [Formula 7], which fraction unbound is on record?
Answer: Its fraction unbound is 0.049.

Question: With `O=C(NC1CC1OCCCc1ccccc1)C1CCC(O)CC1` (centres unmarked) [Formula 34A] as the molecule, how does the fraction unbound read?
Answer: The fraction unbound was 0.37.

Question: For `O=C(CCCCCCCc1ccccc1)N1CCC(O)CC1` [Formula 10], which fraction unbound is on record?
Answer: Its fraction unbound is 0.014.

Question: For `O=C(NCCCCCc1ccccc1)C1CCC(O)CC1` (centres unmarked) [Formula 26], which fraction unbound is on record?
Answer: Its fraction unbound is 0.107.

test system: not listed separately; experiment: Plasma protein binding by equilibrium dialysis, mouse; format: in vitro ADME; settings: read-out: Plasma Protein Binding (Bound %) Mouse (converted)
Procedure: as §2

Question: With `O=C(CCCCCCc1ccccc1)N1CCCC(O)C1` (centres unmarked) [Formula 8] as the molecule, how does the fraction unbound read?
Answer: The fraction unbound was 0.041.

Question: Which fraction unbound does the source give for `O=C(NC1CC(CCCc2ccccc2)C1)C1CCC(O)CC1` (centres unmarked) [Formula 31A] here?
Answer: The fraction unbound was 0.029.

Question: With `O=C(N[C@H]1C[C@@H]1OCCc1ccccc1)[C@H]1CC[C@H](O)CC1` [Formula 32A] as the molecule, how does the fraction unbound read?
Answer: The fraction unbound was 0.279.

Question: For `O=C(CCCCCc1ccccc1)N1CCC(O)CC1` [Formula 9], which fraction unbound is on record?
Answer: Its fraction unbound is 0.088.

Question: Which fraction unbound does the source give for `O=C(NC1CC1OCc1ccccc1)C1CCC(O)CC1` (centres unmarked) [Formula 33A] here?
Answer: The fraction unbound was 0.361.

Question: For `O=C(CCCCCCc1ccccc1)N1CCC(O)CC1` [Formula 7], which fraction unbound is on record?
Answer: Its fraction unbound is 0.043.

Question: With `O=C(NC1CC1OCCCc1ccccc1)C1CCC(O)CC1` (centres unmarked) [Formula 34A] as the molecule, how does the fraction unbound read?
Answer: The fraction unbound was 0.221.

Question: Which fraction unbound does the source give for `O=C(CCCCCCCc1ccccc1)N1CCC(O)CC1` [Formula 10] here?
Answer: The fraction unbound was 0.011.

Question: Which fraction unbound does the source give for `O=C(NCCCCCc1ccccc1)C1CCC(O)CC1` (centres unmarked) [Formula 26] here?
Answer: Its fraction unbound is 0.071.

test system: not listed separately; experiment: Liver microsome stability, human; format: in vitro ADME; settings: human liver microsomes 0.5 mg/ml, 1 uM compound; read-out: Liver Microsomes (t1/2, minutes) Human
Procedure: as §2

Question: With `O=C(CCCCCCc1ccccc1)N1CCCC(O)C1` (centres unmarked) [Formula 8] as the molecule, how does the half-life at 1 uM read?
Answer: The half-life at 1 uM was 60.6 min.

Question: Which half-life at 1 uM does the source give for `O=C(NC1CC(CCCc2ccccc2)C1)C1CCC(O)CC1` (centres unmarked) [Formula 31A] here?
Answer: The half-life at 1 uM was 110 min.

Question: Which half-life at 1 uM does the source give for `O=C(N[C@H]1C[C@@H]1OCCc1ccccc1)[C@H]1CC[C@H](O)CC1` [Formula 32A] here?
Answer: The half-life at 1 uM was over 145 min.

Question: With `O=C(CCCCCc1ccccc1)N1CCC(O)CC1` [Formula 9] as the molecule, how does the half-life at 1 uM read?
Answer: Its half-life at 1 uM is over 145 min.

Question: Which half-life at 1 uM does the source give for `O=C(NC1CC1OCc1ccccc1)C1CCC(O)CC1` (centres unmarked) [Formula 33A] here?
Answer: The half-life at 1 uM was over 145 min.

Question: For `O=C(CCCCCCc1ccccc1)N1CCC(O)CC1` [Formula 7], which half-life at 1 uM is on record?
Answer: Its half-life at 1 uM is 103 min.

Question: Which half-life at 1 uM does the source give for `O=C(NC1CC1OCCCc1ccccc1)C1CCC(O)CC1` (centres unmarked) [Formula 34A] here?
Answer: The half-life at 1 uM was over 145 min.

Question: Which half-life at 1 uM does the source give for `O=C(CCCCCCCc1ccccc1)N1CCC(O)CC1` [Formula 10] here?
Answer: The half-life at 1 uM was 64.5 min.

Question: Which half-life at 1 uM does the source give for `O=C(NCCCCCc1ccccc1)C1CCC(O)CC1` (centres unmarked) [Formula 26] here?
Answer: Its half-life at 1 uM is over 145 min.

test system: not listed separately; experiment: Liver microsome stability, mouse; format: in vitro ADME; settings: mouse liver microsomes 0.5 mg/ml, 1 uM compound; read-out: Liver Microsomes (t1/2, minutes) Mouse
Procedure: as §2

Question: For `O=C(CCCCCCc1ccccc1)N1CCCC(O)C1` (centres unmarked) [Formula 8], which half-life at 1 uM is on record?
Answer: Its half-life at 1 uM is 22.5 min.

Question: Which half-life at 1 uM does the source give for `O=C(NC1CC(CCCc2ccccc2)C1)C1CCC(O)CC1` (centres unmarked) [Formula 31A] here?
Answer: Its half-life at 1 uM is 224 min.

Question: For `O=C(N[C@H]1C[C@@H]1OCCc1ccccc1)[C@H]1CC[C@H](O)CC1` [Formula 32A], which half-life at 1 uM is on record?
Answer: Its half-life at 1 uM is over 145 min.

Question: With `O=C(CCCCCc1ccccc1)N1CCC(O)CC1` [Formula 9] as the molecule, how does the half-life at 1 uM read?
Answer: The half-life at 1 uM was 82.4 min.

Question: Which half-life at 1 uM does the source give for `O=C(NC1CC1OCc1ccccc1)C1CCC(O)CC1` (centres unmarked) [Formula 33A] here?
Answer: The half-life at 1 uM was over 145 min.

Question: For `O=C(CCCCCCc1ccccc1)N1CCC(O)CC1` [Formula 7], which half-life at 1 uM is on record?
Answer: Its half-life at 1 uM is 52.5 min.

Question: For `O=C(NC1CC1OCCCc1ccccc1)C1CCC(O)CC1` (centres unmarked) [Formula 34A], which half-life at 1 uM is on record?
Answer: Its half-life at 1 uM is over 145 min.

Question: With `O=C(CCCCCCCc1ccccc1)N1CCC(O)CC1` [Formula 10] as the molecule, how does the half-life at 1 uM read?
Answer: The half-life at 1 uM was 28 min.

Question: Which half-life at 1 uM does the source give for `O=C(NCCCCCc1ccccc1)C1CCC(O)CC1` (centres unmarked) [Formula 26] here?
Answer: The half-life at 1 uM was 102 min.

test system: not listed separately; experiment: Passive artificial blood brain barrier membrane permeability assay (PAMPA-BBB); format: in vitro ADME; settings: 10 μM compound, 1% porcine brain polar lipid extract/dodecane, room temperature
Procedure: Passive artificial blood brain barrier membrane permeability assay (PAMPA-BBB) were performed using 150 μL of 10 μM compounds (5% DMSO) added to PVDF membranes pre-coated with 5 μL of 1% brain polar lipid extract (Porcine)/dodecane mixture and incubated for 4 h at room temperature with shaking at 300 rpm. Donor and acceptor samples were analyzed by LC-MS/MS.
as §1

Question: With `O=C(CCCCCCc1ccccc1)N1CCCC(O)C1` (centres unmarked) [Formula 8] as the molecule, how does the Papp at 4 h, 10 μM read?
Answer: Its Papp at 4 h, 10 μM is 180 ×10⁻⁶ cm/s.

Question: For `O=C(NC1CC(CCCc2ccccc2)C1)C1CCC(O)CC1` (centres unmarked) [Formula 31A], which Papp at 4 h, 10 μM is on record?
Answer: Its Papp at 4 h, 10 μM is 95.1 ×10⁻⁶ cm/s.

Question: With `O=C(N[C@H]1C[C@@H]1OCCc1ccccc1)[C@H]1CC[C@H](O)CC1` [Formula 32A] as the molecule, how does the Papp at 4 h, 10 μM read?
Answer: The Papp at 4 h, 10 μM was 5.43 ×10⁻⁶ cm/s.

Question: With `O=C(CCCCCc1ccccc1)N1CCC(O)CC1` [Formula 9] as the molecule, how does the Papp at 4 h, 10 μM read?
Answer: The Papp at 4 h, 10 μM was 96.1 ×10⁻⁶ cm/s.

Question: For `O=C(NC1CC1OCc1ccccc1)C1CCC(O)CC1` (centres unmarked) [Formula 33A], which Papp at 4 h, 10 μM is on record?
Answer: The Papp at 4 h, 10 μM was 2.28 ×10⁻⁶ cm/s.

Question: Which Papp at 4 h, 10 μM does the source give for `O=C(CCCCCCc1ccccc1)N1CCC(O)CC1` [Formula 7] here?
Answer: Its Papp at 4 h, 10 μM is 145 ×10⁻⁶ cm/s.

Question: Which Papp at 4 h, 10 μM does the source give for `O=C(NC1CC1OCCCc1ccccc1)C1CCC(O)CC1` (centres unmarked) [Formula 34A] here?
Answer: The Papp at 4 h, 10 μM was 10.5 ×10⁻⁶ cm/s.

Question: For `O=C(CCCCCCCc1ccccc1)N1CCC(O)CC1` [Formula 10], which Papp at 4 h, 10 μM is on record?
Answer: Its Papp at 4 h, 10 μM is 143 ×10⁻⁶ cm/s.

Question: Which Papp at 4 h, 10 μM does the source give for `O=C(NC1CC1CCCCc1ccccc1)C1CCC(O)CC1` (centres unmarked) [Formula 30A] here?
Answer: The Papp at 4 h, 10 μM was 86.8 ×10⁻⁶ cm/s.

Question: Which Papp at 4 h, 10 μM does the source give for `O=C(NCCCCCc1ccccc1)C1CCC(O)CC1` (centres unmarked) [Formula 26] here?
Answer: Its Papp at 4 h, 10 μM is 30.2 ×10⁻⁶ cm/s.
